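Following 48 hours of exposure in 96-well plates, responses at five concentrations were used to interpolate endpoints linearly. At the GI50, growth is halved.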 Activity calls are given as the source filed them. Rule as the data show it: active = GI50 up to about 1.1 µM and inactive = higher.
Key:
Experiment in all cases: inhibition of tumour cell growth, NCI panel, 48 h
NCI-H522 = system: NCI-H522
HCC 2998 = system: HCC 2998
LOX IMVI = system: LOX IMVI
SNB-78 = system: SNB-78
K562 = system: K562
HCT-116 = system: HCT-116
DMS-114 = system: DMS-114
SNB-75 = system: SNB-75
SF-295 = system: SF-295
UACC-62 = system: UACC-62
MCF7 = system: MCF7
DLD-1 = system: DLD-1
M19-MEL = system: M19-MEL
DMS-273 = system: DMS-273
OVCAR-4 = system: OVCAR-4
A549 = system: A549
HL-60 = system: HL-60
NCI/ADR-RES = system: NCI/ADR-RES
SR = system: SR
ACHN = system: ACHN

Measured: GI50

CC[C@@]1(O)C[C@H](OC2CC(N(C)C)C(O)C(C)O2)c2c(cc3c(c2O)C(=O)c2c(O)ccc(O)c2C3=O)[C@H]1C(=O)OC (some centres undefined)
active: NCI-H522 0.0521 µM | HCC 2998 0.162 µM | LOX IMVI 0.0229 µM | SNB-78 0.153 µM | K562 0.0292 µM | HCT-116 0.0229 µM | DMS-114 0.119 µM | SNB-75 0.0826 µM | SF-295 0.032 µM | UACC-62 0.0451 µM | MCF7 0.0885 µM | DLD-1 0.0514 µM | M19-MEL 0.0461 µM | DMS-273 0.0213 µM | OVCAR-4 0.029 µM | A549 0.0365 µM | HL-60 0.0457 µM | NCI/ADR-RES 0.0526 µM

O=Cc1c(Cn2ccnc2)c2cc([N+](=O)[O-])ccc2n1Cc1ccccc1
inactive: NCI-H522 > 100 µM | HCC 2998 > 100 µM | LOX IMVI > 100 µM | SNB-78 > 72.4 µM | K562 97.1 µM | HCT-116 52 µM | DMS-114 > 100 µM | SNB-75 > 100 µM | SF-295 36.8 µM | UACC-62 > 100 µM | MCF7 75.3 µM | DLD-1 > 100 µM | M19-MEL > 69.2 µM | DMS-273 > 100 µM | OVCAR-4 > 100 µM | A549 51.9 µM | NCI/ADR-RES > 61.8 µM

COc1cc(O)c2c(c1)C(=O)c1cc3c(c(O)c1C2=O)C(OC1OC(C)C(O)C(O)C1OC)C(OC)C(C)(O)C3=O (centres undefined)
inactive: NCI-H522 1.93 µM | HCC 2998 4.23 µM | LOX IMVI 2 µM | SNB-78 3.76 µM | DMS-114 1.61 µM | SNB-75 3.57 µM | SF-295 1.82 µM | UACC-62 1.38 µM | MCF7 2.54 µM | DLD-1 2.22 µM | A549 3.71 µM | NCI/ADR-RES 3.48 µM
active: M19-MEL 0.532 µM | DMS-273 0.644 µM | OVCAR-4 0.476 µM

COC(=O)C1C(O)C(C)C(O)OC1C(C)C(O)C(C)/C=C\C=C(/C)C(=O)Nc1c(C)c(OC(C)=O)c2c(c1O)C(=O)C(C)=C1OCOC(/C(C)=C/C(C)=O)=C12 (centres undefined)
inactive: NCI-H522 2.25 µM | HCC 2998 13.9 µM | LOX IMVI 13.7 µM | SNB-78 13.2 µM | K562 16.5 µM | HCT-116 9.53 µM | DMS-114 10.1 µM | SNB-75 3.77 µM | SF-295 14.9 µM | UACC-62 14.3 µM | MCF7 13.9 µM | DLD-1 8.93 µM | M19-MEL 13.3 µM | DMS-273 13.3 µM | OVCAR-4 12.1 µM | A549 15.1 µM | HL-60 3.1 µM | NCI/ADR-RES 15.1 µM

CCCCCCCCCCCCCCCCNCC(O)CN (centres undefined)
inactive: NCI-H522 14.5 µM | HCC 2998 2.39 µM | LOX IMVI 1.75 µM | SNB-78 2.48 µM | K562 1.75 µM | HCT-116 1.87 µM | DMS-114 5.69 µM | SNB-75 3.28 µM | SF-295 2.64 µM | UACC-62 4.7 µM | MCF7 2.36 µM | DLD-1 1.87 µM | M19-MEL 2.4 µM | DMS-273 3.96 µM | OVCAR-4 3.48 µM | A549 3.44 µM | HL-60 1.85 µM | NCI/ADR-RES 2.22 µM

O=C(Nc1ccc(Cl)cc1)C(=O)C(C(=O)c1ccccc1-c1ccccc1)C1OC(=O)c2ccccc21 (centres undefined)
inactive: NCI-H522 14.2 µM | HCC 2998 19.4 µM | LOX IMVI 14.6 µM | SNB-78 > 100 µM | K562 34.4 µM | SR 17.6 µM | HCT-116 18.2 µM | DMS-114 16.7 µM | SNB-75 31.4 µM | SF-295 26.9 µM | UACC-62 15.9 µM | DLD-1 29 µM | M19-MEL 19.4 µM | ACHN 32.4 µM | DMS-273 29 µM | OVCAR-4 35.5 µM | A549 23.6 µM | HL-60 18.5 µM

— ChEMBL document CHEMBL1201862, “PubChem BioAssay data set” (2004)
